pIC50: −log10 of the molar value. Values after ≈ are worked out from the molar mass of the structure shown. Some results are limits rather than exact numbers.

The values below come from patent US20230406840A1, “N-(2-(3-CYANO-2-AZABICYCLO[3.1.0]HEXAN-2-YL)-2-OXOETHYL)QUINOLINE-4-CARBOXAMIDES” (AstraZeneca AB, priority 2022, published 2023).

The target of one data set is FAP Human Plasma (Homo sapiens (Human), UniProt Q12884). Description: FAP plasma inhibition assay, human plasma. It is filed as biochemical. The note with it: human plasma dilution 1:40, Ala-Pro-AMC 75 μM; n = 1. How it is done:
(§1) This assay was adapted from the method described in Example 53 for detection of FAP target engagement enzyme activity in plasma. Plasma (anticoagulant K2EDTA) was used as the enzyme source: Human plasma (Pooled from AZ Biobank) and Mouse plasma (AZ AST Biobank). 384-Well black fluotrack PS plates (Greiner 781076) were used. 20 μL diluted plasma (Human plasma dilution 1:40, Mouse plasma dilution 1:67) in buffer (PBS, 0.1% BSA) was added to 0.6 μL compounds (in DMSO). Compounds were tested using 10 CR, 3-fold dilution series from 500 nM FAC. Two replicates for each assay point were run on the same plate. A fluorescence blank read was taken before substrate addition. Substrate, Ala-Pro-AMC (ARI-3144) stock solution (20 mM in DMSO) was diluted in buffer (PBS, 0.1% BSA) to 150 μM concentration and 20 μL added giving 75 μM FAC. Plates were incubated for 40 min at rt in the dark. The plates were read on a Beckman Paradigm® reader with excitation 360 nm and emission 465 nm. Data were analyzed in Excel (IDBS XLfit Add-In) using a one site dose response model (4-parameter logistic fit). […] Raw data signals were normalized using 1.5% DMSO in diluted plasma as 0% control and 1.5% DMSO in buffer (no plasma) as 100% inhibitor control.

The next data set deals with hFAP (Homo sapiens (Human), UniProt Q12884).
Chain of hFAP (Q12884 38-760): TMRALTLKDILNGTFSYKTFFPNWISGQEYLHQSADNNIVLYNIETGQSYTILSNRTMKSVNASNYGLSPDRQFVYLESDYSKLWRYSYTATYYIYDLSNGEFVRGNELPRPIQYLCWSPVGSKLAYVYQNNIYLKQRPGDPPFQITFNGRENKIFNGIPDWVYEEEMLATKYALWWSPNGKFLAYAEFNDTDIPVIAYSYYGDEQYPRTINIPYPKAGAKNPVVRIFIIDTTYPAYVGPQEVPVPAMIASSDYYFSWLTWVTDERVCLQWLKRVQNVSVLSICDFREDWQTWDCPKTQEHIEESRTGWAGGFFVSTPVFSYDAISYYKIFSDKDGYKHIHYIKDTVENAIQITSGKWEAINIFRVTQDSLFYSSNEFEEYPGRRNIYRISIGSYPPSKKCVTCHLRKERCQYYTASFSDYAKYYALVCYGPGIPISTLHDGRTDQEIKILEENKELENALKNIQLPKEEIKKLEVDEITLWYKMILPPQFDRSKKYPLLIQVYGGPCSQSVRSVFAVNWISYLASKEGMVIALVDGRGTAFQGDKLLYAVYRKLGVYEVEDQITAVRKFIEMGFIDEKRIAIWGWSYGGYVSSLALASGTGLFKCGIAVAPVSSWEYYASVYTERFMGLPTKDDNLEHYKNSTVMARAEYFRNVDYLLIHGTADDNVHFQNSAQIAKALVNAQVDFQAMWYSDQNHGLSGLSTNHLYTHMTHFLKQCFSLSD
Another data set has as its target FAP Mouse Plasma (Mus musculus (Mouse), UniProt P97321). Description: FAP plasma inhibition assay, mouse plasma. It is filed as biochemical. The settings on record: mouse plasma dilution 1:67, Ala-Pro-AMC 75 μM; n = 1. How it is done: as §1
Data set [1] addresses human Fibroblast activation protein alpha (hFAP) (Homo sapiens (Human), UniProt Q12884). Description: hFAP inhibition assay (tight binders). In kind it is biochemical. The note with it: tight-binder format, Ala-Pro-AMC 20 μM, 2.5 h incubation; n = 1 or geometric mean (n = 5-10). How it is done: Data were analyzed in Genedata Screener®.
Data set [2] addresses FAP enzyme activity in mouse plasma (Mus musculus (Mouse), UniProt P97321). Description: FAP target engagement enzyme activity in mouse plasma after oral dosing. The settings on record: male C57Bl/6 mice, single oral dose 3 or 10 mg/kg; estimated from plasma exposure vs FAP activity, Imax fixed to 1; read-out: In vivo Mouse IC50. How it is done:
The effect of test compound on FAP enzyme activity in mouse plasma was evaluated in an enzymatic assay using the Fibroblast Activation Protein alpha (FAP) specific fluorogenic substrate dipeptide-Coumarin, Ala-Pro-AMC, (ARI-3144). In this assay, FAP cleaves Ala-Pro-AMC to release free AMC which is measured as a fluorescent signal that correlates with enzyme activity.
Male C57Bl/6 mice (Charles River, Germany), 8 weeks of age, were single housed in a temperature-controlled room with a 12-hour light/dark cycle (06:00-18:00 light). The mice had ad libitum access to water and rodent chow diet (R70, Lactamin, Kimstad, Sweden), and were acclimated for 5 days upon arrival. After acclimation, all mice received a single oral dose of test compound (3 or 10 mg/kg). Blood samples for whole blood compound exposure measurements were taken at 0.25, 0.5, 1, 2, 4, 8 and 24 h post oral dosing. Samples were collected in EDTA capillary tubes (20 μL, K2E, REF 19.447) and were transferred to a 96-deep well plate (NUNC, Thermo Discher Scientific) and stored at −20° C. until further analyses were performed. […]
Recombinant human FAP (PB-17-1837, construct PL-17-0278, cd33-FAP (27-757)-6His, Mw85926 Da) was used as a standard for this assay. […] The plates were read on a Beckman Paradigm reader with excitation 360 nm and emission 465 nm. Fluorescence measurements were performed with kinetic read every 5 minutes for 60 min at room temperature. Data were analyzed in Excel (IDBS XLfit Add-In) using a Linear Regression (y=k*x+m) model to prepare a human recombinant FAP standard curve.
On the day of the assay, plasma was diluted (1:2) to 20 μL volume in buffer (PBS, 0.1% BSA) and 7.5 μL was transferred to the assay plate (384-well black, fluotrack PS, Greiner 781076). […] The plates were read on a Beckman Paradigm reader with excitation 360 nm and emission 465 nm. Fluorescence measurements were performed with kinetic read every 5 minutes for 60 minutes at room temperature. As noted above, FAP cleaves Ala-Pro-AMC to release free AMC which is measured as a fluorescent signal. […]

In data set [3] the target is Prolyl Oligopeptidase (hPREP) (Homo sapiens (Human), UniProt P48147). Description: hPREP inhibition assay. In kind it is biochemical. The note with it: hPREP 0.6 nM, Z-Gly-Pro-amino-methylcoumarin 50 μM; read-out: PREP IC50. Put shortly:
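Recombinant human PREP at 0.6 nM final, with Z-Gly-Pro-AMC substrate at 50 μM final. Buffer: 25 mM Tris HCl pH 7.5, 250 mM NaCl, 0.01% Triton X-100, 5 mM glutathione. Incubated 20 min at rt in the dark; fluorogenic AMC release read.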

Another data set has as its system Human Hepatocytes (hHep). Description: Metabolic stability in human hepatocytes (hHep). It is filed as in vitro ADME. How it is done:
Metabolic stability in human hepatocytes was measured as described in Xenobiotica 2010, 40, 637.

A short description of the next data set: Kinetic solubility. It is filed as physicochemical. The note with it: kinetic from dmso stock. The procedure: Kinetic solubility was measured as described in Comput Aided Mol Des 2015, 29, 795.
A short description of data set [4]: Metabolic stability in human liver microsomes (HLM). In kind it is in vitro ADME. How it is done:
Metabolic stability in HLM was measured as described in J Comput Aided Mol Des 2015, 29, 795.

For a further data set, the system named is Rat Hepatocytes (rHep). Description: Metabolic stability in rat hepatocytes (rHep). It is filed as in vitro ADME. The procedure:
Metabolic stability in rat hepatocytes was measured as described in J Comput Aided Mol Des 2015, 29, 795.

Data set [5] in a line: Caco-2 AB intrinsic permeability. The note with it: human, A to B, read-out: Caco2 AB Intrinsic Papp. It is filed as in vitro ADME. The procedure:
(§2) Caco-2 cell permeability was measured as described in Mol/Pharm 2017, 14, 1601.

The nature of data set [6]: Caco-2 bidirectional (ABBA) permeability. It is filed as in vitro ADME. The note with it: human. How it is done:
as §2
On the technique in general: Caco-2 monolayers are a common model of the intestinal barrier.

Chain of FAP Human Plasma (Q12884 24-760 limits assumed): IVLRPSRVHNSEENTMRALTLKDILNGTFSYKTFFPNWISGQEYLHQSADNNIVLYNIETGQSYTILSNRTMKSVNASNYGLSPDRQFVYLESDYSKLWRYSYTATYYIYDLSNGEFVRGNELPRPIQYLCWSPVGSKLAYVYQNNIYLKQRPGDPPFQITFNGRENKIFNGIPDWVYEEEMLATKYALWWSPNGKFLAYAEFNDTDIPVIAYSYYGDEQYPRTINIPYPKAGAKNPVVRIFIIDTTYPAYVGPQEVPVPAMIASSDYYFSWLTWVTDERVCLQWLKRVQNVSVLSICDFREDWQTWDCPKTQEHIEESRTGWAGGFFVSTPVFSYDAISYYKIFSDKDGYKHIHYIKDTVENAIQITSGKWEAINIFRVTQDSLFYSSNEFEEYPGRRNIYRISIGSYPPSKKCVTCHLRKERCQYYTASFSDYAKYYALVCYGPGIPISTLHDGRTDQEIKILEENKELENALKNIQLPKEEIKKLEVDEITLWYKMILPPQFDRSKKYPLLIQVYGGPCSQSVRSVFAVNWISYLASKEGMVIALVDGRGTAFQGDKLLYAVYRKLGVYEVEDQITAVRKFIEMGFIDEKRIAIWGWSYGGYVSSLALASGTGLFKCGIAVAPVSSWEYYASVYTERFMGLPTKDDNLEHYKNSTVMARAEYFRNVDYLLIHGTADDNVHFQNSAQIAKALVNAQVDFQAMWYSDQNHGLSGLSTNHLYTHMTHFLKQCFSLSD
Chain of Prolyl Oligopeptidase (hPREP) (P48147 whole entry): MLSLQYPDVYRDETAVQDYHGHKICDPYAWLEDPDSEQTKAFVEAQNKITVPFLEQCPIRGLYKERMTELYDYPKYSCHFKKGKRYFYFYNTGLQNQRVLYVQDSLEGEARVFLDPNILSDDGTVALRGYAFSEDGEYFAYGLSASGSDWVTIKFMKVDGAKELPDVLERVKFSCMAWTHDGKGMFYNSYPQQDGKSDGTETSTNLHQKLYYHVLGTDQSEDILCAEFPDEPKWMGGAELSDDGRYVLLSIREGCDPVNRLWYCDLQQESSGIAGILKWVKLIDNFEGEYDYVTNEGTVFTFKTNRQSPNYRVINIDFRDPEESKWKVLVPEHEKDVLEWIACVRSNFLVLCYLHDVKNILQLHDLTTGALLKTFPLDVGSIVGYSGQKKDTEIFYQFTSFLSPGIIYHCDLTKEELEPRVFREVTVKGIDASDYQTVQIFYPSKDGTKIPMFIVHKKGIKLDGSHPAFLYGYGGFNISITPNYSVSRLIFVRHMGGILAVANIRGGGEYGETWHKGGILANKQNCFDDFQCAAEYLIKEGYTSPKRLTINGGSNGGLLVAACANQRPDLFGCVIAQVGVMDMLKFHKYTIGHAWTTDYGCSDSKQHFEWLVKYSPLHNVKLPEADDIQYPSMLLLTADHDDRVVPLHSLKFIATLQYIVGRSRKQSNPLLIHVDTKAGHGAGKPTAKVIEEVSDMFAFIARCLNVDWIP
Chain of FAP Mouse Plasma (P97321 24-761 limits assumed): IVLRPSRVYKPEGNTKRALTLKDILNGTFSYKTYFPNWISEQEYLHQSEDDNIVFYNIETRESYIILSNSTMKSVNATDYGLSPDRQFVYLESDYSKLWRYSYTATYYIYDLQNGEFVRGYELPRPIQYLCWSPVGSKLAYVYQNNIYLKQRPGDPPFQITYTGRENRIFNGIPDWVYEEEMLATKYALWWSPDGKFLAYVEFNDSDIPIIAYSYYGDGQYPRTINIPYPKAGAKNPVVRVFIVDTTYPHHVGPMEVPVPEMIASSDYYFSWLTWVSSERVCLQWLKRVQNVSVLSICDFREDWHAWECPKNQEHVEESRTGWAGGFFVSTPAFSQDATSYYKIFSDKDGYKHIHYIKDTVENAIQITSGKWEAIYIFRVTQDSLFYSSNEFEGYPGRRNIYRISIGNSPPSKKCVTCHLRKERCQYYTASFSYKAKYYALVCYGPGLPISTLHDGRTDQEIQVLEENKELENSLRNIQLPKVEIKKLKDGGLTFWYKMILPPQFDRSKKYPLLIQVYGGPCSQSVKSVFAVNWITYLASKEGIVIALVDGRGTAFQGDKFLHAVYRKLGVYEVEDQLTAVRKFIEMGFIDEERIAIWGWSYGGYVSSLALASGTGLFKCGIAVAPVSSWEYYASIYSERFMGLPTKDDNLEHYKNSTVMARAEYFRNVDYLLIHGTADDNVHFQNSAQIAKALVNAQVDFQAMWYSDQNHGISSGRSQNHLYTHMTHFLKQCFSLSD
Chain of human Fibroblast activation protein alpha (hFAP) (Q12884 38-760): as the sequence (Q12884 38-760) above
Chain of FAP enzyme activity in mouse plasma (P97321 24-761 limits assumed): as the sequence (P97321 24-761 limits assumed) above

A word on the pIC50: it is −log10 of the IC50, conventionally taken in molar units. With `N#C[C@@H]1C[C@@H]2C[C@@H]2N1C(=O)CNC(=O)c1ccnc2cc(Cl)ccc12` [Example 2, 7-Chloro-N-(2-((1S,3S,5S)-3-cyano-2-azabicyclo[3.1.0]hexan-2-yl)-2-oxoethyl)quinoline-4-carboxamide], the pIC50 against FAP Human Plasma was 7.89; at hFAP, 9.19; against FAP Mouse Plasma it was 8.15; in data set [1], 9.74; in [2], 7.68; in [3] it was less than 4.30.
Broadly, the solubility is how much of the substance goes into solution per volume. Low readings indicate a poorly soluble substance, high ones a readily soluble substance. Broadly, the microsomal CLint is the rate of metabolic loss divided by the concentration. Regarding `N#C[C@@H]1C[C@@H]2C[C@@H]2N1C(=O)CNC(=O)c1ccnc2cc(Br)ccc12` [Example 3, 7-Bromo-N-(2-((1S,3S,5S)-3-cyano-2-azabicyclo[3.1.0]hexan-2-yl)-2-oxoethyl)quinoline-4-carboxamide], the pIC50 on FAP Human Plasma was 7.82; against hFAP, 9.17; at FAP Mouse Plasma, 7.82; in data set [1] it was 9.92; in data set [3], less than 4.30. For the same compound, the “hHep CLint” value with Human Hepatocytes (hHep) is listed as less than 1 μL/min/1E6. The solubility in the data set “Kinetic solubility” was 210 µM (≈ 83.8 µg/mL). For the same compound, the microsomal CLint in [4] was less than 3 µL/min/mg. The “rHeps CLint” value with Rat Hepatocytes (rHep) was found to be 4.5 μL/min/1E6.
As a reminder, the Papp is a coefficient for how fast a substance crosses the barrier. With `Cc1ccc2c(C(=O)NCC(=O)N3[C@H](C#N)C[C@@H]4C[C@@H]43)cc(C)nc2c1` [Example 31, N-(2-((1S,3S,5S)-3-Cyano-2-azabicyclo[3.1.0]hexan-2-yl)-2-oxoethyl)-2,7-dimethylquinoline-4-carboxamide], the pIC50 was 6.49 against FAP Human Plasma, 7.51 at hFAP, 7.96 in [1] and 4.42 in data set [3]. Also, in the data set on Human Hepatocytes (hHep), the “hHep CLint” value is given as less than 1 μL/min/1E6. Besides, in data set [5], the Papp came to 56 ×10⁻⁶ cm/s. In the data set “Kinetic solubility”, this compound came in with a solubility greater than 1000 µM. In data set [4], this compound gave a microsomal CLint of 6.2 µL/min/mg. In the data set on Rat Hepatocytes (rHep), the “rHeps CLint” value amounted to 1.6 μL/min/1E6.
The term Papp A→B denotes the apparent permeability from the apical to the basolateral side of a cell layer. For orientation: Papp B→A means the apparent permeability from the basolateral to the apical side of a cell layer. In the case of `N#C[C@@H]1C[C@@H]2C[C@@H]2N1C(=O)CNC(=O)c1ccnc2cc(C3CC3)ccc12` [Example 37, N-(2-((1S,3S,5S)-3-Cyano-2-azabicyclo[3.1.0]hexan-2-yl)-2-oxoethyl)-7-cyclopropylquinoline-4-carboxamide], the negative logarithm of the IC50 (pIC50) on FAP Human Plasma was 8.26; against hFAP, greater than 8.77; on FAP Mouse Plasma, 8.62; in data set [1], 9.52; in [3], less than 4.30. Moreover, in the data set on Human Hepatocytes (hHep), the “hHep CLint” value came to 2.3 μL/min/1E6. Also, the Papp in data set [5] was found to be 29 ×10⁻⁶ cm/s. For the same compound, the Papp A→B in data set [6] (A to B, read-out: Caco2 Bidirectional (ABBA) A to B Papp) stood at 18 ×10⁻⁶ cm/s. Further, the Papp B→A in [6] (B to A, read-out: Caco2 Bidirectional (ABBA) B to A Papp) turned out to be 33 ×10⁻⁶ cm/s. In addition, the efflux ratio in data set [6] (read-out: Caco2 Bidirectional (ABBA) Efflux Ratio) came out at 1.8. The concentration in solution in “Kinetic solubility” (solubility) was 810 µM (≈ 292 µg/mL). The compound further displayed an intrinsic clearance (microsomal CLint) in data set [4] of 8.4 µL/min/mg. Besides, the “rHeps CLint” value in the data set with Rat Hepatocytes (rHep) is 49 μL/min/1E6.
